The subject of assay [1] is NOD2. In words: MDP-stimulated IL-8 secretion in NOD2 BacMam transduced HEK293T cells. Type of assay: cell-based, human. As for the experimental part:
(§1) Over-expression of NOD1 and NOD2 was achieved by transduction of HEK293T cells with either NOD1 or NOD2 BacMam recombinant baculoviruses. […] The effect of compounds on activator-independent NOD1/2 signaling was determined by 30 minute pre-treatment of cells (in 96-well plates seeded the previous day in DMEM high glucose with 10% FBS at 60,000 cells/well) followed by infection with NOD1 or NOD2 BacMam virus (MOI = 50). IL-8 was measured in conditioned medium after 24 hour incubation at 37 °C. To determine the effect of compounds on NOD1/2 activator-dependent IL-8 secretion in BacMam transduced HEK293T, the cells were infected with virus for 6 hours (MOI = 50), and following the removal of virus the cells were cultured over-night. The next day medium was again replaced and cells pre-treated with compound for 30 minutes followed by stimulation with either MDP (30 ng/mL) or iE-DAP (300 ng/mL). IL-8 was measured in conditioned medium by HTRF after 24-hour incubation at 37 °C.

Assay [2] concerns NOD2. In words: Western blot of MAPK phosphorylation and IκBα in MDP-stimulated 293/hNOD2 cells. Type of assay: cell-based, human. The conditions noted are these: GSK669 at 1 and 10 μM. The method, then:
(§2) Confluent cultures of 293/-hNOD1 and -hNOD2 cells in 24-well plates were serum-starved over-night. The next day, cells were pre-incubated for 1 hour with compound and then stimulated for 1 hour with either 50 μg/mL Tri-DAP or 25 μg/mL MDP, respectively. Whole cell lysates were prepared in 1X cell lysis buffer (Cell Signaling Technology) containing additional inhibitors of aspartic, cysteine and serine proteases and aminopeptidases (protease inhibitor cocktail set III, EMD Biosciences) and inhibitors of multiple phosphatases (phosphatase inhibitor cocktail sets II and III, Sigma-Aldrich). The levels of phosphorylated and total p38, JNK, ERK1/2 and total IκBα were determined by immunoblotting of ∼20 μg protein per sample using the following primary antibodies: phospho-p38 MAPK (12F8, #4631), p38 MAPK (#9212), phospho-JNK (#9251), JNK (#9252) and IκBα (#9242) all purchased from Cell Signaling Technology, and phospho-ERK1/2 (sc-7383) and ERK1/2 (sc-94) antibodies from Santa Cruz Biotechnology.

Assay [3] has as its system NOD2. In words: MDP-stimulated cytokine release in primary human monocytes. The assay is classed as cell-based. The conditions noted are these: primary human monocytes. The method, then:
[…] The concentration of IL-1β, IL-6 and TNFα in medium samples collected after 24-hour treatment was determined using the MS6000 human pro-inflammatory-4 II tissue culture kit (Meso Scale Discovery). The IL-8 concentration was determined by HTRF.

A further assay concerns 300 human kinases. As to the kind of experiment: Kinase panel profiling (Reaction Biology Corp). Type of assay: biochemical. The conditions noted are these: compound at 1 μM; 10 μM ATP; any kinase of the panel. The method, then: The original hit compound identified as a selective inhibitor of the NOD2 pathway was profiled for inhibitory activity against 300 human kinases (Reaction Biology Corp). The compound was tested in duplicate at a single concentration (1 μM) and was pre-incubated with enzyme for 20 minutes prior to addition of 10 μM ATP.

Assay [4] concerns NOD2. As to the kind of experiment: MDP-stimulated IL-8 release in HCT116 cells (endogenous NOD2). The assay is classed as cell-based, human. As for the experimental part:
Compound activity on endogenous NOD1 and NOD2 receptors was determined by inhibition of either Tri-DAP or MDP-stimulated IL-8 release, respectively, using HCT116 human colon carcinoma cells. […] The cells were maintained in DMEM high glucose medium supplemented with 25 mM HEPES and 10% FBS. For assay, cells were seeded into 96 well plates (90,000 cells/well) in DMEM containing 1% FBS and pre-incubated with compounds for 1 hour before addition of either 1 μg/mL MDP or 25 μg/mL Tri-DAP. The level of IL-8 released into medium after 24-hour incubation was determined by HTRF assay as described above and fluorescence measured on an Envision model 2102 multilabel plate reader (Perkin Elmer).

For a further assay, the system named is NOD1. As to the kind of experiment: Western blot of MAPK phosphorylation and IκBα in Tri-DAP-stimulated 293/hNOD1 cells. Type of assay: cell-based, human. Conditions: GSK669 up to 30 μM. The method, then: as §2
The target of assay [5] is T1, full length human FLAG-6His tagged RIP2 (Homo sapiens, UniProt O43353).
T1 construct: autophosphorylation of full length human FLAG-6His tagged RIP2; FLAG; 6His; made in house
T1 sequence (O43353 whole entry): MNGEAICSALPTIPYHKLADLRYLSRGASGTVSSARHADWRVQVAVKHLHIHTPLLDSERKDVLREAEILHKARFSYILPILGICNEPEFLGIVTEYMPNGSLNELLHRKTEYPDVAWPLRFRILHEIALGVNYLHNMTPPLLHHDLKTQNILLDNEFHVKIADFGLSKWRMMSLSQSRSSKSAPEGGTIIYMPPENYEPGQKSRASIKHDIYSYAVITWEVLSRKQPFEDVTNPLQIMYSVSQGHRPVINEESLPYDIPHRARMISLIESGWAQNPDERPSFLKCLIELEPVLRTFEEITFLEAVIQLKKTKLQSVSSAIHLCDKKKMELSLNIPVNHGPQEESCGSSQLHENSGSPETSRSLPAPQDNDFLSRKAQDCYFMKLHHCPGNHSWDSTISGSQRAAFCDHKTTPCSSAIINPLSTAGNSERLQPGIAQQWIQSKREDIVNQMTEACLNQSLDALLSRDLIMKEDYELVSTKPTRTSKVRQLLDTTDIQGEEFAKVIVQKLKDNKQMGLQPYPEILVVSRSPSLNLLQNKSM
As to the kind of experiment: RIP2 kinase autophosphorylation assay (ADP-Glo). The assay is classed as biochemical. Conditions: autophosphorylation of RIPK2; 10 μM ATP. As for the experimental part:
Direct effects of compounds on RIP2 kinase activity was determined by autophosphorylation of full length human FLAG-6His tagged RIP2 expressed and purified from baculovirus. Enzyme was pre-incubated with compounds in assay buffer (50 mM HEPES pH 7.5, 25 mM MgCl2, 0.05%[w/v] CHAPS, 1 mM DTT and 0.05 mg/mL BSA) in 384-well plates, and then incubated with 10μM ATP for 2 hours at room temperature. The amount of ADP generated was measured using the ADP-Glo universal ADP detection assay for kinases (Promega) and luminescence quantified on a ViewLux imager.

The subject of assay [6] is NOD2. As to the kind of experiment: IL-8 secretion induced by NOD2 over-expression (BacMam) in HEK293T cells, activator-independent. The assay is classed as cell-based, human. As for the experimental part:
as §1

The test system of another assay is TLR2. As to the kind of experiment: Pam2CSK4-stimulated IL-8 release in 293/hTLR2 cells. Conditions: read-out: IC50 293/hTLR2 Pam2CSK4, IL-8 end-point, 3–10 ng/mL Pam2CSK4. Type of assay: cell-based, human. The method, then:
(§3) After 24 hours the amount of IL-8 secreted into the medium was determined by homogeneous time resolved fluorescence (HTRF) assay by the direct addition of a 1:1 mix of europium cryptate and XL665-conjugated anti-IL-8 antibodies according to the manufacturer's instructions (Cisbio).

For the next assay, the system named is HCT116 cells. In words: Uptake of MDP-rhodamine by HCT116 cells (fluorescence microscopy). The assay is classed as cell-based, human. The conditions noted are these: GSK669 up to 20 μM, chlorpromazine 20 μM, 1–4 hour. The method, then:
HCT116 cells seeded onto glass cover-slips at low density were pre-treated with GSK669 or the endocytosis inhibitor chlorpromazine for 30 minutes before addition of 2.5 μg/mL MDP-rhodamine. Live cells were viewed periodically over 6-hours incubation at 37 °C using a Nikon eclipse TE2000-E fluorescent inverted microscope fitted with a CCTV camera and rhodamine filter.

In the next assay the test system is TNFR1. As to the kind of experiment: TNFα-stimulated (TNFR1-induced) IL-8 release in 293/hNOD2 cells. The assay is classed as cell-based, human. Conditions: read-out: IC50 293/hNOD2 TNFα, IL-8 end-point, 20 ng/mL rhTNFα. As for the experimental part:
as §3

The text below walks through data of article PMC3731320, “Identification of Benzimidazole Diamides as Selective Inhibitors of the Nucleotide-Binding Oligomerization Domain 2 (NOD2) Signaling Pathway” (PLoS ONE, 2013).

“Also recorded” adds a separate entry of the source. Like-named read-outs stand apart in the source and are kept apart here. Where only a bound is given, the exact number is not on record here.

On to `O=C(Cn1c(CCNC(=O)c2ccccc2)nc2ccccc21)Nc1ccc2c(c1)CCC2` [Compound 1, N-(2-(1-(2-((2,3-dihydro-1H-inden-5-yl)amino)-2-oxoethyl)-1H-benzo[d]imidazol-2-yl)ethyl)benzamide], for which the “effect on MDP response in NOD2 transduced cells, single concentration” value in the assay with NOD2 [1] (HEK293T, 6 hours virus then MDP 30 ng/mL, GSK669 5 μM, IKK inhibitor 0.5 μM) is “selectively blocked the MDP response”. The IC50 is 0.5 µM in the assay with NOD2 [1] (Homo sapiens, HEK-293T, 6 hours transduction, then MDP 30 ng/mL 24 hours, IL-8, read-out: IC50, MDP response in NOD2 transduced HEK293T cells); 0.5 ± 0.2 µM in the assay with NOD2 [4] (Homo sapiens, HCT-116, IL-8 end-point, 1 μg/mL MDP); more than 100 µM in assay [5]; more than 30 µM in the assay on TLR2 (listed as GSK669); more than 80 µM in the assay with TLR2 (listed as GSK669 (1)); more than 30 µM in the assay on TNFR1 (listed as GSK669). Also, in the assay on TNFR1 (listed as GSK669 (1)), the IC50 is more than 100 µM. For the same compound, the “effect on MDP-induced p-p38, p-JNK and total IκBα” value in the assay with NOD2 [2] is “prevented MDP-induced increases in p-p38 and p-JNK and MDP-induced reduction in total IκBα”. Further, the “effect on MDP-stimulated cytokine secretion, single concentration” value with NOD2 [3] (compound 5 μM, MDP 0.1 μg/mL, IL-1β, IL-6, IL-8, TNFα, 24 hours) is “partial inhibition”. Further, the “effect on release of IL-8, IL-6, TNFα and IL-1β in monocytes stimulated with MDP” value in the assay with NOD2 [3] (dose response) is on record as “dose-dependently inhibited”. For the same compound, the “inhibition of kinase activity, panel of 300 human kinases” value with 300 human kinases is listed as not above 50%. Further, in the assay on NOD2 [4] (MDP 1 μg/mL, 1 hour pre-treatment), the “effect on IL-8 secretion induced by MDP in HCT116 cells” value is given as “dose-dependently inhibited”. For the same compound, the “effect on Tri-DAP-induced p-p38, p-JNK and total IκBα” value in the assay on NOD1 is “inactive”. In addition, in the assay with NOD2 [6] (MOI 50, 24 hours, GSK669 5 μM, IKK inhibitor 0.5 μM), the “effect on IL-8 secretion induced by NOD2 virus alone, single concentration” value is given as “failed to block IL-8 secretion”. Further, the “effect on IL-8 secretion induced by NOD2 over-expression” value with NOD2 [6] (NOD2 virus 24 hours, GSK669 up to 50 μM) was “failed to inhibit this response”. The “effect on uptake of Rhodamine-MDP into cells” value with HCT116 cells is reported as “unaffected; also recorded: does not block cellular uptake of MDP”.
